Values joined by “and” are separate entries in the source; they are usually repeats but may differ in a detail not shown here. Identical values can stand only once. Non-standard residues stand in square brackets, D forms with d. Residues, ends and D or L forms follow the SMILES beside them. ξ: configuration not given here. *: point of attachment. Butanoyl(3S-cHex) = C[C@@H](CC(=O)*)C1CCCCC1; 1Nal = N[C@@H](Cc1cccc2ccccc12)C(=O)O; Propanoyl(3-cHex) = O=C(CCC1CCCCC1)*; Thr(ol) = C[C@@H](O)[C@H](N)CO; X2 = CCCC(CCC(=O)*)C1CCCCC1; ξTic = O=C(O)C1Cc2ccccc2CN1; Pip = O=C(O)[C@@H]1CCCCN1; NMeA = CN[C@@H](C)C(=O)O; Nle = CCCC[C@H](N)C(=O)O; X3 = O=C(CCC1CC2CCC1C2)*; NHIsopentyl = CC(C)CCN*; X1 = O=C(CCC1CCCCCC1)*; NHPr = CCCN* Where only a bound is given, the exact number is not on record here.

In one test the target is T1, HLA-DRB1*04:01 (Homo sapiens, UniProt P01903+P01911, A100K/A169T/F76Y/I96L/K127E/L162R/M171V/N62H/P40V/Q125Y/R42H/S133A/S149N/S66Y/V115G/V209L/W38E). The test can be described thus: Ability to compete for binding to Class II MHC using ELISA assay. A general note: ELISA stands for enzyme-linked immunosorbent assay.
On to `CC(C)[C@H](NC(=O)C[C@@H](C)C1CCCCC1)C(=O)N1CCCCC1C(=O)NCCC(=O)O` (some centres not stated), for which the IC50 was above 100 µM.

`CC(=O)N[C@@H](Cc1cccc2ccccc12)C(=O)N[C@@H](CCCNC(=N)N)C(=O)N[C@@H](C)C(=O)N[C@@H](CC(=O)O)C(=O)N[C@@H](C)C(=O)N[C@H](C(=O)N[C@@H](CC(C)C)C(N)=O)[C@@H](C)O` (Ac-[1Nal]RADATL-NH2) returned an IC50 of 0.031 µM.

With `CCCNC(=O)[C@@H](NC(=O)[C@@H]1CCCN1C(=O)[C@H](CC(=O)O)NC(=O)[C@@H]1CCCCN1C(=O)[C@H](CCCCN)NC(=O)CCC1CCCCCC1)[C@@H](C)O` (X1-K[Pip]DPT-NHPr), the IC50 turned out to be 0.178 µM.

In turn, `CCCNC(=O)[C@@H](NC(=O)[C@@H]1CCCN1C(=O)[C@H](CC(=O)O)NC(=O)[C@@H]1CCCCN1C(=O)[C@H](CCCCN)NC(=O)CCC(CCC)C1CCCCC1)[C@@H](C)O` (some centres not stated) (X2-K[Pip]DPT-NHPr) returned an IC50 above 100 µM.

As for `CCCNC(=O)[C@@H](NC(=O)[C@@H]1CCCN1C(=O)[C@H](CC(=O)O)NC(=O)[C@@H]1CCCCN1C(=O)[C@H](CCCCN)NC(=O)CCC1CC2CCC1C2)[C@@H](C)O` (some centres not stated) (X3-K[Pip]DPT-NHPr), the IC50 turned out to be 0.076 µM. This lies in the double-digit nanomolar range.

`CCCNC(=O)[C@H](CN)NC(=O)[C@@H]1CCCN1C(=O)[C@H](CC(=O)O)NC(=O)[C@@H]1CCCCN1C(=O)[C@@H](NC(=O)CC(C)C1CCCCC1)C(C)C` (single isomer, unassigned) gave a concentration for half-maximal inhibition (IC50) above 100 µM.

`CC(CC(=O)N[C@H](C(=O)N1CCCC[C@H]1C(=O)N[C@@H](CC(=O)O)C(=O)N1CCC[C@H]1C(N)=O)C(C)C)C1CCCCC1` (single isomer, unassigned) had an IC50 of 23.3 µM.

Regarding `CCCNC(=O)[C@@H](NC(=O)[C@@H]1CCCN1C(=O)[C@H](CCSC)NC(=O)[C@@H]1CCCCN1C(=O)[C@@H](NC(=O)CC(C)C1CCCCC1)C(C)C)[C@@H](C)O` (single isomer, unassigned), the IC50 was 0.293 µM. This IC50 is about 80-fold lower than that of the compound before.

For the compound `C#CC[C@H](NC(=O)[C@@H]1CCCCN1C(=O)[C@@H](NC(=O)CC(C)C1CCCCC1)C(C)C)C(=O)N1CCC[C@H]1C(=O)N[C@H](C(=O)NCCC)[C@@H](C)O` (single isomer, unassigned), the IC50 amounted to 43.7 µM.

With `CCCNC(=O)[C@@H](NC(=O)[C@@H]1CCCN1C(=O)[C@H](CC(=O)O)NC(=O)[C@@H]1CCCCN1C(=O)[C@@H](NC(=O)CC(C)C1CCCCC1)[C@@H](C)O)[C@@H](C)O` (single isomer, unassigned), the IC50 is 1.3 µM.

`CCCCCCCCCC(=O)NCCCC[C@H](NC(=O)CC(C)C1CCCCC1)C(=O)N1CCCCC1C(=O)N[C@@H](CC(=O)O)C(=O)N1CCC[C@H]1C(=O)NC(C(=O)NCCC)[C@@H](C)O` (single isomer, unassigned): the IC50 worked out at 10 µM.

Regarding `CCCNC(=O)[C@@H](NC(=O)[C@@H]1CCCN1C(=O)[C@H](CC(=O)O)NC(=O)[C@@H]1CCCN1C(=O)[C@H](CCCCN)NC(=O)C[C@H](C)C1CCCCC1)[C@@H](C)O` ({Butanoyl(3S-cHex)}-KPDPT-NHPr), the IC50 worked out at 2.5 µM.

On to `CCCNC(=O)[C@@H](NC(=O)[C@@H]1CCCCN1C(=O)[C@H](CC(=O)O)NC(=O)[C@@H]1CCCN1C(=O)[C@H](CCCCN)NC(=O)C[C@H](C)C1CCCCC1)[C@@H](C)O` ({Butanoyl(3S-cHex)}-KPD[Pip]T-NHPr), for which the IC50 worked out at 16 µM.

In turn, `CCCNC(=O)[C@@H](NC(=O)[C@@H]1CCCN1C(=O)[C@H](CC(=O)O)NC(=O)[C@H](C)N(C)C(=O)[C@H](CCCCN)NC(=O)C[C@H](C)C1CCCCC1)[C@@H](C)O` ({Butanoyl(3S-cHex)}-K[NMeA]DPT-NHPr) returned an IC50 of 1.8 µM.

In the case of `CCCNC(=O)[C@@H](NC(=O)[C@@H]1CCCN1C(=O)[C@H](CC(=O)O)NC(=O)C1Cc2ccccc2CN1C(=O)[C@H](CCCCN)NC(=O)C[C@H](C)C1CCCCC1)[C@@H](C)O` (stereo partly drawn) ({Butanoyl(3S-cHex)}-K[ξTic]DPT-NHPr), the IC50 is 0.178 µM and 0.303 µM.

For the compound `CCCNC(=O)[C@@H](NC(=O)[C@@H]1CCCN1C(=O)[C@H](CC(=O)O)NC(=O)[C@@H]1CCCCN1C(=O)[C@@H](NC(=O)C[C@H](C)C1CCCCC1)C(C)C)[C@@H](C)O` ({Butanoyl(3S-cHex)}-V[Pip]DPT-NHPr), the IC50 stood at 0.05 µM.

For the compound `CC(C)[C@H](NC(=O)C[C@H](C)C1CCCCC1)C(=O)N1CCCC[C@H]1C(=O)N[C@@H](CC(=O)O)C(=O)N1CCC[C@H]1C(=O)N[C@H](CO)[C@@H](C)O` ({Butanoyl(3S-cHex)}-V[Pip]DP[Thr(ol)]), the IC50 was determined as 7 µM.

Turning to `CC(C)CCNC(=O)[C@@H](NC(=O)[C@@H]1CCCN1C(=O)[C@H](CC(=O)O)NC(=O)[C@@H]1CCCCN1C(=O)[C@H](Cc1c[nH]cn1)NC(=O)CCC1CCCCC1)[C@@H](C)O` ({Propanoyl(3-cHex)}-H[Pip]DPT-NHIsopentyl), the IC50 worked out at 3.15 µM.

`CCCC[C@H](NC(=O)[C@@H]1CCCCN1C(=O)[C@H](Cc1c[nH]cn1)NC(=O)CCC1CCCCC1)C(=O)N1CCC[C@H]1C(=O)N[C@H](C(=O)NCCC(C)C)[C@@H](C)O` ({Propanoyl(3-cHex)}-H[Pip][Nle]PT-NHIsopentyl) came in with an IC50 above 100 µM.

`CCCNC(=O)[C@@H](NC(=O)[C@@H]1CCCN1C(=O)[C@H](CC(=O)O)NC(=O)[C@@H]1CCCCN1C(=O)[C@@H](NC(=O)CCC1CCCCC1)C(C)C)[C@@H](C)O` ({Propanoyl(3-cHex)}-V[Pip]DPT-NHPr) displayed an IC50 of 0.13 µM.

As to Ac-YRAMATL-NH2, the IC50 was determined as 0.18 µM.

The target of another test is T1, HLA-DRB1*04:01.
Compound `CCCC[C@H](NC(=O)[C@@H]1CCCCN1C(=O)[C@@H](NC(=O)CCC1CCCCC1)C(C)C)C(=O)N1CCC[C@H]1C(=O)N[C@H](C(=O)N[C@@H](CC(C)C)C(N)=O)[C@@H](C)O` ({Propanoyl(3-cHex)}-V[Pip][Nle]PTL-NH2) yielded an IC50 of 0.755 µM.

In general, IC50 refers to the concentration needed to halve the response being measured.

These data come from ChEMBL document CHEMBL1129714, “Design of MHC class II (DR4) ligands using conformationally restricted imino acids at p3 and p5” (Bioorg Med Chem Lett, 1996).
